From US20020161007A1, “Non-steroidal modulators of estrogen receptors” (priority 2001, published 2002)

Experiments:
[1] = test system: human breast tumor MCF-7 cell line; test: MTT antiproliferative assay on human MCF-7 cell line; type: cell-based; conditions: Homo sapiens, MCF7; MTT inhibition of proliferation, mean of triplicate determinations; read-out: IC50 Range
Text: EXAMPLE 14—Determination of the antiproliferative effects on human MCF-7 cell lines.
MTT is a yellow tetrazolium salt which is taken up only by metabolically active cells and subsequently cleaved by mitochondrial dehydrogenases to yield a purple crystalline formazan dye. On solubilisation this purple color may be read spectrophotometrically at 570 nm. The absorbance measured at this wavelength is directly proportional to the amount of viable cells present.
Procedure : The human breast tumor MCF-7 cell line was cultured in Eagles minimum essential medium in a 5% CO2 atmosphere with 10% fetal calf serum. The medium was supplemented with 1% non-essential amino acids. The cells were trypsinized and seeded at a density of 1.5×10^4 into a 96-well plate and incubated at 37° C., 5% CO2 atmosphere for 24 h. […] Control wells contained the equivalent volume of the vehicle ethanol (1% v/v). The culture medium was then removed and the cells washed with 100 μl PBS and 50 μl MTT added, to reach a final concentration of 1 mg/ml MTT added. The cells were incubated for 2 h in darkness at […]. At this point solubilisation was begun through the addition of 200 μl DMSO and the cells maintained at room temperature in darkness for 20 min to ensure thorough color diffusion before reading the absorbance. The absorbance value of control cells (no added compound) was set to 100% cell viability. Graphs of absorbance versus cell density per well were prepared to assess cell viability.

estrogen receptor = target: T1, estrogen receptor (Rattus norvegicus, UniProt P06211); test: Displacement of tritium-labelled estradiol from estrogen receptor-rich uterine cytosol; type: binding; conditions: mean ± SEM
T1 construct: Estrogen receptor-rich cytosol was obtained from the uteri; from tissue; host or cells: uterus of immature Sprague-Dawley rats (cytosol, 100,000 x g supernatant, DCC-treated)
T1 sequence (P06211 1-600): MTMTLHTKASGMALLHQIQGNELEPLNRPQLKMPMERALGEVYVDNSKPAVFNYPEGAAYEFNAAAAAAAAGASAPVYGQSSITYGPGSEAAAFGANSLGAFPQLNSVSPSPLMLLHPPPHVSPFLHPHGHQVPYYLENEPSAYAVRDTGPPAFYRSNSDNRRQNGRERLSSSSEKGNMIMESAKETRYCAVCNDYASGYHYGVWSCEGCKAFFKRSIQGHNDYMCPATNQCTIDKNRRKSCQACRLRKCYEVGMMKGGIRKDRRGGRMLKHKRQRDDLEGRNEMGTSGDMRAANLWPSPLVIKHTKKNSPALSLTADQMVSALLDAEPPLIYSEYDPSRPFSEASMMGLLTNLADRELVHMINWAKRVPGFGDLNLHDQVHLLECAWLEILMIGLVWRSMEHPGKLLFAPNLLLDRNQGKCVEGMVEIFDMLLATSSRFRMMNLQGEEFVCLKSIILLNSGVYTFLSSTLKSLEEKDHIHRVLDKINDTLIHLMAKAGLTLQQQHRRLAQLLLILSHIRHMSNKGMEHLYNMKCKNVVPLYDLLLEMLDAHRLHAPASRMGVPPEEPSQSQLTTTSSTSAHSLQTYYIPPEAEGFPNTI
Method: EXAMPLE 16—Determination of the binding affinity of compounds for estrogen receptor
Binding affinity (Ki value) for the estrogen receptor is measured by the ability of the compound to displace tritium-labelled estradiol from the receptor site.
Procedure Estrogen receptor-rich cytosol was obtained from the uteri of humanely sacrificed Sprague-Dawley immature rats (100-150 g mass). Briefly, the uteri were homogenized in 0.01 M sodium phosphate buffer, pH 7.3, containing 0.15 M NaCl, 0.1% gelatin and 0.01% sodium azide. The homogenate was then centrifuged at 100,000×g, […]. The cytosol thus isolated was pretreated with dextran coated charcoal (DCC on ice) and re-isolated using centrifugation, before freezing at−20° C. for later use. The protein concentration of cytosol samples was determined using a standard Bradford protein assay and an appropriate protein concentration range (150 μg protein in a total volume of 0.14 ml) for assay prepared. The required amounts of tritium-labeled (hot) and non-labeled (cold) estradiol were calculated using standard saturation curve techniques. A fresh buffer solution was prepared (Tris[tris(hydroxymethyl)-aminomethane]buffer-10 mM, pH 7.4, containing 1.5 mM EDTA and 3 mM sodium azide). Displacement testing of the compounds was facilitated through the incubation of a buffered solution of a known concentration of the test compound with hot estradiol solution (specific activity 157 Ci/mmol-final conc. 5 nM/ tube), followed by the addition of estrogen receptor-rich cytosol (150 μg protein). Total and non-specific binding control assays were determined in the absence and presence of 14 μl of a 0.2 mM cold estradiol solution respectively, properly corrected for the presence of ethanol in the test (displacement) samples. Samples were vortexed to ensure homogeneity and refrigerated at […] for 16-20 h. After this time the samples were retreated with DCC on ice and centrifuged for ten min at 3500×g. A 170 μl sample was pipetted from each vial and diluted with 10 ml scintillation fluid (Ecoscint). […] The samples thus prepared were counted for radioactivity by liquid scintillation counting. Binding values were obtained as counts per minute (cpm) and were converted to disintegrations per minute (dpm) and computationally analysed using sigmoidal curve fitting programs EBDA and LIGAND [14] to fit the displacement curves and to calculate binding affinity values (Ki) for the test compounds.
The following table illustrates the relative binding affinity values measured for selected compounds, based on their ability to displace radiolabelled estradiol from estrogen receptor-rich cytosol. Values are expressed as the mean determined±SEM.

MCF-7 cells = test: FACS (propidium iodide) assay for apoptotic induction in MCF-7 cells; type: cell-based, human; conditions: 50 μM, 16 hours
Method: EXAMPLE 17—Assay for determining apoptotic induction by compounds
Fluorescence Activated Cell Sorting
Procedure Following treatment of MCF-7 cells with apoptotic compounds, the cells were washed three times with PBS before being trypsinised and centrifuged at 300 g for 5 min. They were then resuspended in 200 μl PBS, made up to 2 ml with ice-cold ethanol (70% v/v) and left to sit on ice for at least 1 h to fix them. Approximately 1 h prior to use they were centrifuged at 300 g for 3 min and the supernatant carefully pipeted off. The pellet was resuspended in 800 μl PBS. RNAase (100 μL; 1mg/mL) and 100 μL of the fluorescent dye propidium iodide (PI; 400 μg/mL) which binds DNA were added. The tubes were vortexed and incubated at 37° C. for 30 min. Flow cytometry was performed with a FACS calibur flow cytometer from Becton Dickinson. FACS data was analysed using the programme Cell Quest.

Row | Compound | IC50 [1] | Ki (estrogen receptor) | % Cell cycle phases G1 (MCF-7 cells) | % Cell cycle phases G2/M (MCF-7 cells) | % Cell cycle phases S (MCF-7 cells) | % Cell cycle phases sub-G1 (MCF-7 cells; sub-G1 apoptotic peak)
1 | CCC(Cc1ccccc1)=C(c1ccccc1)c1ccc(OCCN(C)C)cc1 (racemic) [Compound 1, 2-Benzyl-1-phenyl-1-[4-(dimethylaminoethoxy)phenyl]but-1-ene] | 10000 to 15000 nM | 459 ± 230 nM |  |  |  | 
2 | CC/C(=C(\Cc1ccccc1)c1ccc(OCCN(C)C)cc1)c1ccccc1 [Compound 6, 1-Benzyl-2-phenyl-[(4-dimethyleaminoethoxy)phenyl]but-1-ene] | 20000 to 25000 nM | 503 ± 98 nM |  |  |  | 
3 | CCC(=C(Cc1ccccc1)c1ccccc1)c1ccc(OCCN2CCCCC2)cc1 [Compound 14, 1-Benzyl-1-phenyl-2-[(4-pipyridinylethoxy)phenyl]but-1-ene] | 15000 to 20000 nM | 2390 ± 350 nM |  |  |  | 
4 | CCC(=C(Cc1ccc(OCCN2CCOCC2)cc1)c1ccccc1)c1ccccc1 [Compound 20] | 15000 to 20000 nM | 2480 ± 450 nM |  |  |  | 
5 | CCC(Cc1ccccc1)=C(c1ccc(O)cc1)c1ccc(OCCN2CCCC2)cc1 [Compound 25, 4-{2-Benzyl-1-[4-(2-pyrrolidin-1-yl-ethoxy)-phenyl]-but-1-enyl}-phenol] | 10 to 100 nM |  | 51.3% | 21.0% | 7.6% | 20.1%
